The values below come from paper PMC12843137, “Fine-Tuning Side Chain Substitutions: Impacts on the Lipophilicity–Solubility–Permeability Interplay in Macrocyclic Peptides” (Marine Drugs, 2025).

Read-outs that look alike come from different tables or passages of the source. Some results are limits rather than exact numbers.

In one test the test system is PATU8988T cells. Description: CCK-8 antiproliferative assay, PATU8988T. Format: cell-based. The following applies: Homo sapiens, PaTu 8988t; CCK-8, 72 h, mean ± SEM (n = 3); read-out: Cell proliferation IC50 PATU8988T. The protocol: (§1) The inhibitory activities against human pancreatic cancer PANC-1 cells of the synthesized compounds were evaluated by CCK-8 assay.
(§2) Human pancreatic cancer cell lines PANC-1, PATU8988T and BxPC3 were purchased from the Cancer Institute & Hospital of the Chinese Academy of Medical Sciences (Shanghai, China). All three cell lines were cultured in RPMI-DMEM medium containing 10% fetal bovine serum, cultured at a constant temperature of 37 °C in a humidified incubator with 5% CO2.
(§3) Pancreatic cancer cells are seeded into 96-well plates. After a proliferation time of 16 h, different concentrations of compounds are added into the corresponding wells and incubated for 72 h. 10 μL of CCK-8 solution is added into each well and incubated for 1–4 h at 37 °C. Shake the plates and read the OD value of each well at 450 nm on a microplate reader.
(§4) 1. Characterization of biological activity
(§5) Supplementary Figure S1. Cell viability is assessed using the CCK -8 assay following 72 h treatment with the tested compounds in pancreatic cancer cell lines: a) PATU8988T, b) BxPC3.
(§6) Supplementary Table S1. The effects of compounds against two pancreatic cancer cell lines were evaluated using […]
(§7) Cell proliferation IC 50(µM)a
(§8) [a] IC50 va lues of the tested compounds ar e determined in PATU8988T an d BxPC3 cells. […]
(§9) Supplementary Figure S2. Convergence of the PMF calculated from WTM -eABF simulation . […]

A further test concerns BxPC3 cells. Description: CCK-8 antiproliferative assay, BxPC3. Format: cell-based. The following applies: Homo sapiens, BXPC-3, 72 h, CCK-8, 72 h, mean ± SEM (n = 3); read-out: Cell proliferation IC50 BxPC3. The protocol:
as §1, §2, §3, §4, §5, §6, §7, §8, §9

The next test has as its target T1, recombinant human eEF1A1 (Homo sapiens, UniProt P68104).
T1 construct: purchased TMPH-01283
T1 sequence (P68104 1-462): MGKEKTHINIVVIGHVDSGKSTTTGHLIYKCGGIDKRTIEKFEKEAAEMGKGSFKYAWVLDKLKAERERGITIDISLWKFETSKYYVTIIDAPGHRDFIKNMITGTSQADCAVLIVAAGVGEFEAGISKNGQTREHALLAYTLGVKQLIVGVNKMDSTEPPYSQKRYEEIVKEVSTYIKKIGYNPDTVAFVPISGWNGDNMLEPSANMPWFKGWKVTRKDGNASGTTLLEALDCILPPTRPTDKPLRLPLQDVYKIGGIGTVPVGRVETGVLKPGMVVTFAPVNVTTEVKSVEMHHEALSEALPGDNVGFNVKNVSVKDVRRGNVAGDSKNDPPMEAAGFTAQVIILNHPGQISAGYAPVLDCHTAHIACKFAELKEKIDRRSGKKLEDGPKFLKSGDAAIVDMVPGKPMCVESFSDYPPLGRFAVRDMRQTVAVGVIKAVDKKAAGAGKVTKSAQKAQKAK
Description: MicroScale Thermophoresis (MST) binding assay. The following applies: for Kd: MST, 50 mM HEPES pH 7.4, 0.05% Tween-20, triplicate, mean ± SD. An excerpt: To investigate whether the loss of cellular activity in the BE derivatives results from diminished binding to the known intracellular target eEF1A1, we assessed direct target engagement using MST. Recombinant human eEF1A1 protein was titrated against the compounds, which were supplied in HEPES buffer (pH 7.4) and diluted as required. Binding interactions were quantified by monitoring changes in thermophoretic mobility. Detailed materials and protein labeling procedures are provided in the Supporting Information.
Compounds were serially diluted (16-point, 2-fold) in assay buffer (50 mM HEPES, pH 7.4, 0.05% Tween-20) as ligands. Labeled eEF1A1 protein (target) was mixed 1:1 with each dilution and incubated at room temperature for 20 min. Samples were loaded into premium capillaries and analyzed on the Monolith X instrument following the manufacturer’s protocol, with infrared laser excitation at 1480 nm to generate a temperature gradient. Thermophoretic mobility was monitored via fluorescence changes before, during, and after laser activation.
Data were analyzed using NanoTemper Analysis software (version 2.3) to fit binding curves and determine dissociation constants (Kd). Experiments were performed in triplicate, and Kd values are reported as mean ± standard deviation.
The Lucifer Yellow fluorescence (to monitor monolayer integrity) signal is measured in a fluorescence plate reader at 485 nm excitation and 530 nm emission.
The leakage of Lucifer Yellow, in unit of percentage (%), can be calculated using the following equation:
%LY leakage = 100×[LY]acceptor/([LY]donor+[LY]acceptor)
Where [LY]acceptor is the fluorescence intensity in the acceptor well (0.3 mL), and [LY]donor is the fluorescence intensity in the donor well (0.1 mL) and expressed as % leakage. The percentage of Lucifer yellow leakage […]
should be less than 1.0%. […]
monolayers will be compared. […]
those in the replicate transwells (CV<30%), the monolayer's Papp data will be considered valid and […]
Supplementary Table S3. The assessment of caco-2 cell monolayer integrity. […]
For orientation: Microscale thermophoresis detects binding through changes in fluorescence in a small temperature gradient.

A further test concerns PANC-1 cells. To be noted: CCK-8; cited from earlier work.

On to `CCCCOc1ccc(-c2ccc(-c3ccc(Cn4cc(CCCCC[C@H]5OC(=O)CN(C)C(=O)/C=C/[C@@H](CN6CCN(C)CC6)NC(=O)CNC(=O)[C@@](C)(O)C(=O)[C@H]5C)nn4)cc3)cc2)cc1` [Compound 29], for which the IC50 in the test on PATU8988T cells and in the test with BxPC3 cells was above 50 µM each time. The Kd at recombinant human eEF1A1 (read-out: Kd) worked out at 7.82 ± 0.63 µM. At recombinant human eEF1A1 (ratio of MST Kd values), the “fold weaker affinity than the parent BE” value was “approximately 3.4 fold”.
Turning to `CC1C(=O)C(C)(O)C(=O)NCC(=O)NC(CN2CCN(C)CC2)C=CC(=O)N(C)CC(=O)OC1CCCCc1cn(CCCCCCCCNC(=N)N)nn1` (centres unmarked) [Compound 31], the IC50 is above 50 µM in the test on PATU8988T cells and above 100 µM in the test on BxPC3 cells. Further, the Kd entry on recombinant human eEF1A1 is recorded as “no detectable binding”.
Regarding `CCCCCCCCCCCCCC1OC(=O)CN(C)C(=O)C=CC(CN2CCN(C)CC2)NC(=O)CNC(=O)C(C)(O)C(=O)C1C` (centres unmarked) [BE-NMP], the IC50 with PANC-1 cells was 0.65 ± 0.19 µM.

For orientation: Kd means the concentration at which binding is half-saturated.
